# Results: patent publication US6946465B2, “Immunosuppressive effects of pteridine derivatives” (4 AZA Bioscience NV, priority 1999, dated 2005)
# Legend:
# Format in all cases: cell-based, human
# [1] = system: highly purified T cells stimulated by anti-CD28 mAb; assay: CD28 assay: T-cell proliferation stimulated by anti-CD28 mAb + PMA (BrdU); settings: Table 1; anti-CD28 mAb + PMA 0.5 ng/ml, 48 h
# Text: (§1) Various models may be used for testing an immunosuppressive effect. In vivo, for example, different transplantation models are available. They are strongly influenced by different immunogenicities, depending on the donor and recipient species used and depending on the nature of the transplanted organ. The survival time of transplanted organs can thus be used to measure the suppression of the immune response. In vitro, the most used models are lymphocyte activation tests. Usually activation is measured via lymphocyte proliferation. Inhibition of proliferation thus always means immunosuppression under the experimental conditions applied. There exist different stimuli for lymphocyte activation: • a) co-culture of lymphocytes of […] (mixed lymphocyte reaction, hereinafter referred as MLR) in a so-called mixed lymphocyte culture test: lymphocytes expressing different minor and major antigens of the HLA-DR type (=alloantigens) activate each other non-specifically. • b) a CD3 assay here there is an activation of the T-lymphocytes via an exogenously added antibody (OKT3).
# (§2) All reagents were dissolved in 0.5 ml dimethylsulfoxide (hereinafter referred as DMSO) and further diluted in culture medium before use for the following in vitro experiments. The commercially available culture medium consisted of RPMI-1640+10% foetal calf serum (FCS).
# (§3) T cells were purified by removing non-T cells. Briefly, monocytes were removed by cold agglutination. The resulting lymphoid cells were further purified by a cell enrichment immunocolumn [Cellect Human T commercially available from Biotex, Edmonton, Alberta, Canada)] by a process of negative selection.
# (§4) Highly purified T cells (10^6/ml) were stimulated by immobilized anti-CD3 or anti-CD28 monoclonal antibodies (hereinafter referred as mAb) in the presence of PMA. Anti-CD3 mAb (available from CLB, Amsterdam, Netherlands) were fixed on the 96-microwell plates by incubating the wells with 50 μl of mAb solution (1/800 dilution in culture medium). For anti-CD28 mAb (available from CLB, Amsterdam, Netherlands) 50 μl (1/650 dilution in culture medium) was added directly to the wells. Further, a 20 μl phorbol myristate acetate (hereinafter referred as PMA (commercially available from Sigma, St. Louis, Mo., USA) solution (final concentration: 0.5 ng/ml) was added. Subsequently, 20 μl of a compound described in some of the previous examples were added by serial dilution in triplicate wells. Finally 100 μl of the T-cell suspension (10^6/ml) was added. After 48-hour incubation at 37° C. in 5% CO2 20 μl of a bromo-deuridine (hereinafter referred as BrdU) 100 μM solution (commercially available as Cell Proliferation Elisa from Boehringer-Mannheim Belgium) was added to each well. After a further overnight incubation, T-cell proliferation was measured using a colorimetric immunoassay for qualification of cell proliferation based on the incorporation of BrdU during DNA synthesis. Optical density (hereinafter referred as OD) was measured by a Behring EL311 plate reader at 450 nm (reference wavelength: 690 nm). Inhibition of proliferation by a compound (drug) described in some of the previous examples was counted using the formula: [formula]
# [2] = system: peripheral blood mononuclear cells (PBMC) with allogeneic PBMC or RPMI1788 stimulator cells; assay: Mixed lymphocyte reaction (MLR) test, [3H]-thymidine incorporation; settings: Table 1; 5 days incubation + 16 h thymidine
# Text: as §1, §2
# Peripheral blood mononuclear cells (hereinafter referred as PBMC) were isolated from heparinized peripheral blood by density gradient centrifugation over Lymphoprep (Nycomed, Maorstua, Norway). Allogeneic PBMC or Eppstein-Barr Virus-transformed human B cells [commercially available under the trade name RPM11788 (ATCC name CCL156)] which strongly express B7-1 and B7-2 antigens were used as stimulator cells after irradiation with 30 Gy. MLR was performed in triplicate wells. After 5 days incubation at 37° C., 1 μCi [^3 H]-thymidine was added to each cup. After a further 16 hours incubation, cells were harvested and counted in a β-counter. Inhibition of proliferation by a compound (drug) described in some of the previous examples was counted using the formula: [formula] wherein cpm is the thymidine count per minute. Assays for CD3 and CD 28
# [3] = system: highly purified T cells stimulated by immobilized anti-CD3 mAb; assay: CD3 assay: T-cell proliferation stimulated by anti-CD3 mAb + PMA (BrdU); settings: Table 1; anti-CD3 mAb + PMA 0.5 ng/ml, 48 h; read-out: CD 3 IC50
# Text: as §1, §2, §3, §4
Structure (SMILES),IC50 [1] [µM],IC50 [2] [µM],IC50 [3] [µM]
"Cn1c(=O)c2nc(C#N)c(-n3ccnc3)nc2n(C)c1=O [Example 57, 6-cyano-7-imidazolyl-1,3-dimethyl-lumazine]",15,48,16.8
"Cn1c(=O)c2nc(C=O)c(N3CCCCCC3)nc2n(C)c1=O [Example 68, 6-formyl-7-(1-azacycloheptyl)-1,3-dimethyl-lumazine]",116,80,80
"Cn1c(=O)c2nc(/C=C/c3cccnc3)cnc2n(C)c1=O [Example 6, 1,3-dimethyl-6-[(E)-2-(pyrid-3-yl)vinyl]lumazine]",110,30,110
"Cn1c(=O)c2nc(C3OCCO3)c(Cl)nc2n(C)c1=O [Example 49, 6-(1,3-dioxolanyl)-7-chloro-1,3-dimethyl-lumazine]",3.6,11,2.2
"Cn1c(=O)c2nc(C=Cc3ccc(C(F)(F)F)cc3)cnc2n(C)c1=O [Example 77, 6-[2-(p-trifluoromethylphenyl)ethenyl]-1,3-dimethyllumazine]",140,17,> 200
"Cn1c(=O)c2ncc(/C=C/C=Cc3ccccc3)nc2n(C)c1=O [Example 23, 1,3-dimethyl-7-[(E)-4-(phenyl)butadienyl]-lumazine]",80,30,110
"CCOC(=O)c1nc2c(=O)n(C)c(=O)n(C)c2nc1NCC(C)(C)C [Example 61, 6-ethylcarboxylate-7-neopentylamino-1,3-dimethyl-lumazine]",16,16,80
"Cc1nc2c(nc1NCc1ccccc1)c(=O)n(C)c(=O)n2C [Example 73, 6-benzylamino-1,3,7-trimethyl-lumazine]",128,44,92
"CCSC(C[N+](=O)[O-])c1cnc2c(n1)c(=O)n(C)c(=O)n2C (stereo not drawn) [Example 19, 6-[(1-ethylthio-2-nitro)ethyl]-1,3-dimethyl-lumazine]",0.09,4.5,0.35
"Cn1c(=O)c2nc(Cl)c(C#N)nc2n(C)c1=O [Example 51, 6-chloro-7-cyano-1,3-dimethyl-lumazine]",56,116,56
"CCOC(=O)c1nc2c(=O)n(C)c(=O)n(C)c2nc1N1CCCCC1 [Example 63, 6-ethylcarboxylate-7-piperidinyl-1,3-dimethyl-lumazine]",80,104,128
"Cn1c(=O)c2nc(C#N)c(NCc3ccccc3)nc2n(C)c1=O [Example 53, 6-cyano-7-benzylamino-1,3-dimethyl-lumazine]",104,140,140
"Cn1c(=O)c2nc(C=Cc3ccc(C(F)(F)F)cc3)cnc2n(C)c1=O [Example 78, 6-[2-(p-trifluoromethylphenyl)ethenyl]-1,3-dimethyllumazine]",164,17,> 200
"Cn1c(=O)c2nc(C=O)c(NCCO)nc2n(C)c1=O [Example 67, 6-formyl-7-hydroxyethylamino-1,3-dimethyl-lumazine]",104,104,104
"CCCCNc1nc2c(nc1C(=O)OCC)c(=O)n(C)c(=O)n2C [Example 60, 6-ethylcarboxylate-7-n-butylamino-1,3-dimethyl-lumazine]",92,13,56
"COC(=O)C(Br)C(Br)c1cnc2c(n1)c(=O)n(C)c(=O)n2C (stereo not drawn) [Example 11, 6-(1,2-dibromo-2-(methoxycarbonyl)ethyl)-1,3-dimethyllumazine]",0.08,12,0.55
"Cn1c(=O)c2nc(C#N)c(Cl)nc2n(C)c1=O [Example 47, 6-cyano-7-chloro-1,3-dimethyl-lumazine]",12,104,15
"Cn1c(=O)c2ncc(C(Br)=Cc3ccccc3)nc2n(C)c1=O [Example 28, 7-(1-bromo-2-phenyl)ethenyl-1,3-dimethyllumazine]",2.7,2.7,2.4
"Cn1c(=O)c2nc(C(Cl)Cl)c(Cl)nc2n(C)c1=O [Example 50, 6-dichloromethyl-7-chloro-1,3-dimethyl-lumazine]",9.5,4,9.5
"Cn1c(=O)c2ncc(/C=C/c3cccnc3)nc2n(C)c1=O [Example 21, 1,3-dimethyl-7-[(E)-2-(pyrid-3-yl)vinyl]lumazine]",60,20,100
"Cn1c(=O)c2nc(C=O)c(N3CCSCC3)nc2n(C)c1=O [Example 69, 6-formyl-7-thiomorpholino-1,3-dimethyl-lumazine]",116,116,80
"Cn1c(=O)c2nc(C=C[N+](=O)[O-])cnc2n(C)c1=O [Example 18, 1,3-dimethyl-6-[(2-nitro)ethenyl]lumazine]",0.4,12,0.8
"COc1nc2c(nc1C=Cc1ccccc1)c(=O)n(C)c(=O)n2C [Example 40, 7-methoxy-1,3-dimethyl-6-styryllumazine]",> 200,20,> 200
"Cn1c(=O)c2ncc(/C=C/c3ccncc3)nc2n(C)c1=O [Example 22, 1,3-dimethyl-7-[(E)-2-(pyrid-4-yl)vinyl]lumazine]",100,75,125
"Cc1nc2c(nc1N1CCCC1)c(=O)n(C)c(=O)n2C [Example 74, 6-pyrrolidinyl-1,3,7-trimethyl-lumazine]",128,140,92
COC(=O)C=C(OC)c1cnc2c(n1)c(=O)n(C)c(=O)n2C [Example 16],80,70,80
"CCOC(=O)c1nc2c(=O)n(C)c(=O)n(C)c2nc1SCC [Example 65, 6-ethylcarboxylate-7-mercaptoethyl-1,3-dimethyl-lumazine]",116,140,116
"Cn1c(=O)c2nc(C#N)c(SCc3ccccc3)nc2n(C)c1=O [Example 59, 6-cyano-7-mercaptobenzyl-1,3-dimethyl-lumazine]",16,> 200,18.5
"Cn1c(=O)[nH]c2nc(O)c(-c3ccccc3)nc2c1=O [Example 42, 7-hydroxy-3-methyl-6-phenyllumazine]",25,55,20
